According to patent publication US20080260639A1, “PREPARATION AND METHOD UTILIZING RADIOLABELED CHLOROTOXIN” (priority 2004, published 2008):

Experiments:
[1] = Storage stability of 1-131 Hippuran: percent remaining bound; assay type: physicochemical; conditions: 1 mCi per vial
Experimental: As another example, 1-131 Hippuran was prepared. The 1-131 Hippuran was prepared as follows: 9 vials were prepared of 1-131 Hippuran in solution with a radioactive concentration of MIBG of 1 mCi per vial. Each vial had 4 cc. The 1-131 in seven of those vials was then stabilized and lyophilized according to the process described in this invention. One vial was frozen and maintained at a temperature of −10 degrees, and another vial was maintained room temperature. Room temperature was selected because Hippuran is thought to be stable at room temperature even in conjunction with a radioisotope. […]

[2] = Storage stability of I-131 MIBG: percent of iodine remaining bound to the MIBG; assay type: physicochemical; conditions: for percent of iodine remaining bound to the MIBG: 1 mCi per vial
Text: The radioactive diagnostic radiopharmaceutical in this invention requires no further cold or refrigerated storage, including with respect to shipping, subsequent to stabilization. The lyophilized radiopharmaceutical composition is reconstituted “on site” for administration to patients by the addition of a suitable diluent to bring the radiopharmaceutical complex into solution at the time of administration to the patient. For administration, the I-123 labeled MIBG in the vial must be reconstituted. Because of the minute quantity of material, the vial of radionuclide complex, in the preferred mode the I-123 labeled MIBG will appear empty. The MIBG ligand is stable for several days because of the absence of water which is the primary substance from which free radicals are generated by gamma ray collisions with water molecules. The gamma rays are being emitted by the radionuclide, that is the I-123. The health care provider would add up to 2 ml. of sterile normal saline. The desired dose would be withdrawn and measured in a dose calibrator of a type manufactured by Capintec of Montville, N.J. If the glass vial is measured in the dose calibrator, the person measuring the dose must recognize that the glass vial will decrease the apparent activity. Upon calibration of the desired dose, the I-123 MIBG now re-dissolved in the solution is promptly administered to the patient. The advantages are that the flash freezing and lowering of vapor pressure result in quick formation and evaporation or sublimation (evaporation from ice to water vapour (a gas)) of water from the I-123 MIBG. The I-123 MIBG need not be shipped frozen in dry ice nor need it be shipped for overnight delivery. Shipping in dry ice over a weekend is generally not commercially practical. The I-123 MIBG can be shipped over the weekend and be used on Monday while simply maintaining it at room temperature or below. In order to establish the advantages of the novel process and resulting composition, a series of tests were run utilizing meta iodo benzyl guanidine (MIBG) in which the radionuclide I-131 was the iodine in the MIBG.
The MIBG was prepared as follows: eight vials were prepared of MIBG in solution with a radioactive concentration of MIBG of 1 mCi per vial. The MIBG in six of those vials were then stabilized and lyophilized according to the process described in this invention. One vial was frozen and maintained at a temperature of −10 degrees, and another vial was simply refrigerated at approximately 5 degrees.
Six vials were prepared according to the process in this invention in order to enable several to be reconstituted from the lyophilized state and their activity tallied.
The radioactive concentration of MIBG per vial was 1 mCi per vial.
The results showing the percent of iodine remaining bound to the MIBG are set forth in table I. One each of the vials was reconstituted after 24, 48, 72 and 168 hours respectively.

## O=C([O-])CNC(=O)c1ccccc1[131I].[Na+] [Hippuran]
[1]; Frozen −10°, 0 hours
  percent of Hippuran remaining bound to the I-123: 98%
[1]; Frozen −10°, 24 hrs
  percent of Hippuran remaining bound to the I-123: 97.8%
[1]; Frozen −10°, 48 hrs
  percent of Hippuran remaining bound to the I-123: 97%
[1]; Frozen −10°, 72 hrs
  percent of Hippuran remaining bound to the I-123: 94%
[1]; Frozen −10°, 96 hrs
  percent of Hippuran remaining bound to the I-123: 92.5%
[1]; Frozen −10°, 120 hrs
  percent of Hippuran remaining bound to the I-123: 91%
[1]; Lyophilized and stabilized per invention, stored at room temp., 0 hours
  percent of Hippuran remaining bound to the I-123: 98%
[1]; Lyophilized and stabilized per invention, stored at room temp., 24 hrs
  percent of Hippuran remaining bound to the I-123: 98.4%
[1]; Lyophilized and stabilized per invention, stored at room temp., 48 hrs
  percent of Hippuran remaining bound to the I-123: 98.6%
[1]; Lyophilized and stabilized per invention, stored at room temp., 72 hrs
  percent of Hippuran remaining bound to the I-123: 98%
[1]; Lyophilized and stabilized per invention, stored at room temp., 96 hrs
  percent of Hippuran remaining bound to the I-123: 98.4%
[1]; Lyophilized and stabilized per invention, stored at room temp., 120 hrs
  percent of Hippuran remaining bound to the I-123: 98.5%
[1]; Room Temp. (solution, not lyophilized), 0 hours
  percent of Hippuran remaining bound to the I-123: 98%
[1]; Room Temp. (solution, not lyophilized), 24 hrs
  percent of Hippuran remaining bound to the I-123: 96%
[1]; Room Temp. (solution, not lyophilized), 48 hrs
  percent of Hippuran remaining bound to the I-123: 95%
[1]; Room Temp. (solution, not lyophilized), 72 hrs
  percent of Hippuran remaining bound to the I-123: 94.5%
[1]; Room Temp. (solution, not lyophilized), 96 hrs
  percent of Hippuran remaining bound to the I-123: 92%
[1]; Room Temp. (solution, not lyophilized), 120 hrs
  percent of Hippuran remaining bound to the I-123: 90%

## N=C(N)NCc1cccc([131I])c1 [MIBG, meta iodo benzyl guanidine]
[2]; Frozen −10°, 24 hours
  percent of iodine remaining bound to the MIBG: 94%
[2]; Frozen −10°, 48 hours
  percent of iodine remaining bound to the MIBG: 91%
[2]; Frozen −10°, 72 hours
  percent of iodine remaining bound to the MIBG: 84%
[2]; Frozen −10°, 168 hours (1 wk.)
  percent of iodine remaining bound to the MIBG: 72%
[2]; Lyophilized and stabilized per invention, stored at room temp., 24 hours
  percent of iodine remaining bound to the MIBG: 97%
[2]; Refrigerated ~+5°, 24 hours
  percent of iodine remaining bound to the MIBG: 92%
[2]; Refrigerated ~+5°, 48 hours
  percent of iodine remaining bound to the MIBG: 85%
[2]; Refrigerated ~+5°, 72 hours
  percent of iodine remaining bound to the MIBG: 77%
[2]; Refrigerated ~+5°, 168 hours (1 wk.)
  percent of iodine remaining bound to the MIBG: 55%
[2]; not stabilized and lyophilized per this invention
  activity on storage: deteriorated sharply
